Source: ChEMBL document CHEMBL1201862, “PubChem BioAssay data set” (2004)
Activity calls are given as the source filed them.

Tests used:
[1] = HEK-293T viability loss, compound-treated – cell-based, uHTS hits, cytotoxicity control for B/T-cell NF-kB inhibitor project, dose response (AID 489019); type: functional;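 further: IC50 reflects cytotoxicity as loss of cell viability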
[2] = target: T1, Microphthalmia-associated transcription factor (Homo sapiens, UniProt O75030); test: reducers of TRPM1 reporter luminescence, concentration series – cell-based, SK-MEL-5, cherry-picked, set 3, MITF inhibitor project, dose response (AID 493073); type: functional;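 further: SK-MEL-5 melanoma cells with luciferase driven by the MITF target TRPM1 promoter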
T1 sequence (O75030 whole entry): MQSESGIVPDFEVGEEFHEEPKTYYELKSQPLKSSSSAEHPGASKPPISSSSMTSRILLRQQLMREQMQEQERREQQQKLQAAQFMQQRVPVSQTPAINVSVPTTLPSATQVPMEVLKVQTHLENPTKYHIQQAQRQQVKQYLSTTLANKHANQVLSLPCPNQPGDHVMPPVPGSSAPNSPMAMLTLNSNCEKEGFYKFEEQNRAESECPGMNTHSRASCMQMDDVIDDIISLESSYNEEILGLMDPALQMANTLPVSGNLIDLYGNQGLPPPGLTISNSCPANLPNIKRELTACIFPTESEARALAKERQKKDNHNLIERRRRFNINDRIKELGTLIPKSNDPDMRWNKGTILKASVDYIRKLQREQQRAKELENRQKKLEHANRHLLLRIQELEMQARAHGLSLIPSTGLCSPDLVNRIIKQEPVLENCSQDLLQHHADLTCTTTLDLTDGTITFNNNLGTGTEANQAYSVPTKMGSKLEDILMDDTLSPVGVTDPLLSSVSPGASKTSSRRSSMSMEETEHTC

[3] = tested on: Jurkat; test: blockers of NF-kB activation in T cells – Jurkat, luciferase reporter, luminescence, B- and T-cell, dose response (AID 489004); type: functional, cell-based; details: Homo sapiens;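 further: NF-kB luciferase reporter Jurkat cells stimulated with PMA plus ionomycin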
[4] = target: Nuclear receptor subfamily 0 group B member 1 (Homo sapiens, UniProt P51843); test: Luminescence-based cell-based high throughput dose response assay for inhibitors of the orphan nuclear receptor subfamily 0, group B, member 1 (DAX1; NR0B1). [Related pubchem assays (depositor defined):AID504766, AID504790]; type: functional
Nuclear receptor subfamily 0 group B member 1, sequence (P51843 whole entry): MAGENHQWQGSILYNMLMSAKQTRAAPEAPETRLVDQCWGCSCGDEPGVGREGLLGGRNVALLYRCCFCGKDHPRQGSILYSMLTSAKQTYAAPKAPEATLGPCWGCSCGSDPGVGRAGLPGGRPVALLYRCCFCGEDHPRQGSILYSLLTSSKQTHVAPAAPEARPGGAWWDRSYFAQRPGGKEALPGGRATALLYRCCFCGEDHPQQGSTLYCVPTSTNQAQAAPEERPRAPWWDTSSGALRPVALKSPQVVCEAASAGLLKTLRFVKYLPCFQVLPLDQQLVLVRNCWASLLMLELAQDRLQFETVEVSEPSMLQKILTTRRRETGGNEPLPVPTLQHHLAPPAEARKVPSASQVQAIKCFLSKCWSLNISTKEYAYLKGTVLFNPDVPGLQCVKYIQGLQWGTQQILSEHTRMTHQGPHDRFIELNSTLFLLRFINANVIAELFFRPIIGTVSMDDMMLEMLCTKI

[5] = tested on: HEK293; test: cells; type: functional, cell-based; details: Homo sapiens
[6] = tested on: Candida albicans; test: Candida growth inhibition combined with fluconazole – CaCi-2 strain, Alamar Blue, dry powder, set 3, dose response (AID 488907); type: functional, organism-based

## COc1ccc(/C=C2\SC(=O)N(CCCC(=O)Nc3cc(Cl)ccc3C(=O)O)C2=O)cc1
[1]
  IC50: > 80 µM (inactive)
[2]
  AC50: 0.528 µM (active)
[3]
  IC50: < 0.16 µM (active)

## N#C/C(=N/Nc1ccc([N+](=O)[O-])cc1)C(=N)N1CCCCC1
[4]
  IC50: > 67.5 µM (inactive)
[5]
  IC50: > 67.5 µM (inactive)

## O=C(c1ccc(Cl)cc1)N1CCN(c2ncccc2C(F)(F)F)CC1
[6]
  AC50: 0.217 µM (active)
